# Entries after “also recorded” stand apart in the source; their conditions may differ.
# Key:
# [1] = target: T1, COX-2 (human recombinant) (Homo sapiens, UniProt P35354); assay: COX colorimetric inhibitor screening assay, COX-2; conditions: for SI (COX-2 selectivity index = IC50 of COX-1/IC50 of COX-2): in vitro
# T1 sequence (P35354 18-604): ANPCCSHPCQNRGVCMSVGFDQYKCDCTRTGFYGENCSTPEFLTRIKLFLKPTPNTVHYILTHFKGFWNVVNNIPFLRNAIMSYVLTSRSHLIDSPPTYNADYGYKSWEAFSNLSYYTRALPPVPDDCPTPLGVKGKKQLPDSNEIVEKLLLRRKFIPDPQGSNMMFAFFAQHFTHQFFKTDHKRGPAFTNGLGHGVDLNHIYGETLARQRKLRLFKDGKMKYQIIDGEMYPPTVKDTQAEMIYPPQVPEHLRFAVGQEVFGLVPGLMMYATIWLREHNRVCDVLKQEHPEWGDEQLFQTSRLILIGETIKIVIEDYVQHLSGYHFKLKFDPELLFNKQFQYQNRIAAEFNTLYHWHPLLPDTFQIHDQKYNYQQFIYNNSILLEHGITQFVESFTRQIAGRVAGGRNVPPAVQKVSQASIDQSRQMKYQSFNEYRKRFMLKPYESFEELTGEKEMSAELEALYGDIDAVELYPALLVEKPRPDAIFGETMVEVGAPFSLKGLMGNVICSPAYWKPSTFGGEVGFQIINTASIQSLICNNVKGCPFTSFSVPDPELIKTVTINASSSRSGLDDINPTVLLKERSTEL
# [2] = system: stomach mucosa, submucosa and mucosal glands; assay: Histopathological study of rat stomach; assay type: in vivo; conditions: rats of the ulcerogenicity test, haematoxylin and eosin stain
# Source text: The stomachs of the rats used in ulcerogenicity test were subjected to a histopathological study to visualize the deep effects of ibuprofen and tested compounds on the stomach mucosa, submucosa and mucosal glands. The specimens were stained with haematoxylin and eosin stain [33].
# The study investigated the deep effect of the tested compounds on the mucosa, submucosa and mucosal gland. The stomachs which were opened longitudinally along the greater curvature were used and the specimens were taken from the stomachs of all cases. These specimens were fixed in 10% formalin solution for 72 h. The samples were processed and embedded in paraffin wax. Microtomy was done and 5 microns tissue sections were obtained and mounted on clean glass slides.
# [3] = system: carrageenan-induced rat paw edema; assay: Carrageenan-induced rat paw edema model (anti-inflammatory activity); assay type: in vivo; parameters: key to Potency (anti-inflammatory activity of tested compound/ibuprofen): ratio of % inhibition of edema (compound / ibuprofen); ibuprofen = 1.00; conditions: for % Inhibition in Edema Thickness 1 h: 1 h after induction of inflammation; for % Inhibition in Edema Thickness 1 h / % Inhibition in Edema Thickness 2 h / % Inhibition in Edema Thickness 3 h: IP, dose molecularly equivalent to ibuprofen, n = 6; for % Inhibition in Edema Thickness 2 h: 2 h after induction of inflammation; for % Inhibition in Edema Thickness 3 h: 3 h after induction of inflammation; for Potency (anti-inflammatory activity of tested compound/ibuprofen): after 3 h of induction of inflammation, relative to ibuprofen; for anti-inflammatory activity (in words): compared with ibuprofen and parent compound 12
# Source text: The carrageenan-induced rat paw edema model was utilized to investigate the anti-inflammatory activity of compounds 12–19 relative to ibuprofen as a reference drug.
# (§1) Adult albino rats of both sex weighing 100–140 g were used in evaluation of the anti-inflammatory, analgesic, ulcerogenic activity in addition to the histopathological study of the new pyrrolizines 12–19. Animal ethical use clearance was obtained from the Ethical Committee at the College of Pharmacy, Umm Al-Qura University. Normalization of the animals with laboratory conditions were achieved by keeping them in laboratory one week before starting the experiments. Standard rat pellet diet was used for feeding animals and water ad libitum.
# The anti-inflammatory activity of the novel compounds 12–19 was evaluated in comparison with ibuprofen as a standard, using a rat paw edema model as described by Winter et al.. Adult albino rats of both sexes (100–140 gm) were used. Rats were uniformly hydrated by giving 3 mL water for each rat through gastric inoculation to reduce variability to edema response. Animals were then divided into groups of six animal each. The control group was given saline solution containing few drops of sodium carboxymethyl cellulose (CMC) 1% and DMSO. Ibuprofen (50 and 100 mg/kg) was given as standard drug. The new compounds 12–19 in a dose molecularly equivalent to ibuprofen were dissolved in 0.5 mL DMSO and CMC 1% was added dropwise with continuous triturating to complete the specified volume. The tested compounds were administered intraperitoneally (IP). The induction of inflammation was achieved by subcutaneous (SC) injection of carrageenan-sodium gel, into the sub-plantar region of the right hind paw. The dorsoventral diameter (thickness) of the right and left hind paw of each rat was measured using digital calipers with accuracy of 0.01 mm (Cole-Parmer, Vernon Hills, IL, USA). The thickness of edema was measured 1, 2 and 3 h after induction of inflammation. The left hind paw diameter served as a control for the degree of inflammation in the right hind paw. The changes in the edema thickness were expressed as mean ± SEM, Figure 4. The anti-inflammatory activity was calculated as % inhibition of inflammation = (1 − Lt/Lc) × 100. Where Lt is the mean increase in paw thickness in rats treated with the tested compounds and Lc is the mean increase in paw thickness in control group. Data were collected, and statistically analyzed by One way ANOVA followed by student-Newman-Keuls multiple comparison test, Table 2.
# [4] = system: rat stomach mucosa; assay: Acute ulcerogenicity study; assay type: in vivo; conditions: oral, 0.48 mmol/kg; for Ulcerogenicity UI (ulcer index): three days, n = 6
# Description: GIT toxicity is the main serious side effect of the NSAIDs. In this work, the ulcerogenicity of the novel compounds 12–19 was evaluated according to the previous reported methodology. The tested compounds 12–19 and ibuprofen were given orally in a dose of 0.48 mmol/kg.
# as §1
# GIT toxicity was evaluated according to the previous report. Adult albino rats of both sexes were divided into groups of six animals each. The test compounds were dissolved first in 0.5 mL DMSO, then CMC (1%) was added dropwise with trituration. Rats were fasted 20 h before drug administration. The eight tested compounds and ibuprofen were given orally in a dose of 0.24 and 0.48 mmol/kg/day suspended in 1% CMC, while the control group received vehicle (1% CMC containing few drops of DMSO). Rats were then fasted for 2 h, allowed to feed for 2 h then fasted again for another 20 h. Other doses were given in the second and third days. In the fourth day, Pentobarbital (60 mg/kg IP) was used to induce deep anesthesia then rats were sacrificed. The stomachs were removed, opened along with the greater curvature and rinsed with 0.9% saline. The number of mucosal damages (red spots) were counted using magnifying lens and their severity (ulcerogenic severity) was graded in a scale from 0 to 3 as follows: (0) normal (no injury), (0.5) red coloration, (1) spot ulcer, (1.5) hemorrhagic streaks, (2) ulcer > 3 mm, (3) ulcer > 5 mm. The ulcer index was calculated using the following equation ulcer index (UI) = UN + US + UP/10, where UN is the average number pf ulcers per animal, US is the average of severity score, UP is the percent of animal with ulcer.
# [5] = system: thermal pain (hot plate); assay: Hot-plate test (analgesic activity); assay type: in vivo, rat; conditions: IP; for analgesic potency relative to ibuprofen: 0.48 mmol/kg; for analgesic activity (in words): 0.24 and 0.48 mmol/kg, 2 h after injection, compared with ibuprofen
# Description: A hot-plate was used to induce thermal pain and the cutoff time was fixed to 15 s [30]. […] The analgesic activity of the novel pyrrolizines were carried out using the thermal model (hot-plate test) according to a previous report [30]. An electronically controlled hot-plate (Harvard Apparatus Ltd., Kent, UK) was used and the cut-off time was 15 s and the temperature was adjusted to 52 ± 0.1 °C. Animals were then divided into groups of six animal each. Rats were assigned numbers of 1–6 in each group. The reference drug was given intraperitoneally at a dose of 50 mg/kg (0.24 mmol/kg) and 100 mg/kg (0.48 mmol/kg). […] The response latencies (time elapsed until licking paw or jumping) were measured and expressed as mean ± SEM. The percent changes (analgesic effects) of the tested compounds were calculated as percent change in latencies divided by baseline time (100 × (T1 − T0)/T0) and results were expressed as % change ± SEM, Figure 6.
# [6] = target: T2, COX-1 (ovine) (Ovis aries, UniProt P05979); assay: COX colorimetric inhibitor screening assay, COX-1
# T2 sequence (P05979 25-600): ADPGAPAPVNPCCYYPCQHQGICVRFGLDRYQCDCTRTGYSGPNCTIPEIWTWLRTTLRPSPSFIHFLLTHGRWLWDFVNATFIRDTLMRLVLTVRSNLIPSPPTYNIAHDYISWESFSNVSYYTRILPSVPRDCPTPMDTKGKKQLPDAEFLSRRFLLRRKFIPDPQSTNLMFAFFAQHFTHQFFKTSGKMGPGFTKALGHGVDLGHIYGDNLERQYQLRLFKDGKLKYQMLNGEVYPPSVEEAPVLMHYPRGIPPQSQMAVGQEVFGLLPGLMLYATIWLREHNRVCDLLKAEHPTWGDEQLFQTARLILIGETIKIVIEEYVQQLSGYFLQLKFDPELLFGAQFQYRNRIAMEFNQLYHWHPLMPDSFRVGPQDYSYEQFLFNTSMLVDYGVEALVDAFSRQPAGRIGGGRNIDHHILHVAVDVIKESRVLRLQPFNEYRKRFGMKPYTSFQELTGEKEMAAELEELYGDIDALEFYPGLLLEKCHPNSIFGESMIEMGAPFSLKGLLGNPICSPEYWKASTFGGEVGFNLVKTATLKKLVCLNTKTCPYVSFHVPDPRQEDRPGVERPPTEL
Structure (SMILES),IC50 [1] [nM],SI (COX-2 selectivity index = IC50 of COX-1/IC50 of COX-2) [1],IC50 [6] [nM],histopathological findings in stomach transverse sections [2],% Inhibition in Edema Thickness 1 h [3] [%],% Inhibition in Edema Thickness 2 h [3] [%],% Inhibition in Edema Thickness 3 h [3] [%],Potency (anti-inflammatory activity of tested compound/ibuprofen) [3],anti-inflammatory activity (in words) [3],Ulcerogenicity UI (ulcer index) [4],Ulcerogenicity % Protection (% inhibition of ulcer relative to ibuprofen) [4] [%],analgesic potency relative to ibuprofen [5] [times],analgesic activity (in words) [5]
"CN1CCN(CC(=O)Nc2c(C#N)c3n(c2C(=O)Nc2ccc(Br)cc2)CCC3)CC1 [Compound 14, N-(4-Bromophenyl)-7-cyano-6-(2-(4-methylpiperazin-1-yl)acetamido)-2,3-dihydro-1H-pyrrolizine-5-carbox-amide]",1090,3.21,3500,variable degrees of necrosis with some leukocytes infiltration,8.30,9.84,16.37,0.40,the least active one,4.66,66.38,,lower than that of ibuprofen; also recorded: the least active
"N#Cc1c(NC(=O)c2ccccc2)c(C(=O)Nc2ccc(Br)cc2)n2c1CCC2 [Compound 16, 6-Benzamido-N-(4-bromophenyl)-7-cyano-2,3-dihydro-1H-pyrrolizine-5-carboxamide]",850,2.89,2450,normal mucosal glands with no histopathological effects,29.95,37.80,50.58,1.24,,2.26,83.69,1.03 to 1.27,higher analgesic activity than ibuprofen; also recorded: good activity comparable to that of ibuprofen
"CC(C)Cc1ccc(C(C)C(=O)O)cc1 (centres unmarked) [Ibuprofen, reference compound]",,,,severe damage represented by leukocytes infiltration and necrosis in the mucosa layer with hypertrophy in mucosal glands,25.81,33.46,40.82,1.00,,13.86,0,,

# The next lines start with results.
IC50 [1] [nM],SI (COX-2 selectivity index = IC50 of COX-1/IC50 of COX-2) [1],IC50 [6] [nM],Structure (SMILES),histopathological findings in stomach transverse sections [2],% Inhibition in Edema Thickness 1 h [3] [%],% Inhibition in Edema Thickness 2 h [3] [%],% Inhibition in Edema Thickness 3 h [3] [%],Potency (anti-inflammatory activity of tested compound/ibuprofen) [3],anti-inflammatory activity (in words) [3],Ulcerogenicity UI (ulcer index) [4],Ulcerogenicity % Protection (% inhibition of ulcer relative to ibuprofen) [4] [%],analgesic potency relative to ibuprofen [5] [times],analgesic activity (in words) [5]
1270,3.64,4640,"N#Cc1c(N)c(C(=O)Nc2ccc(Br)cc2)n2c1CCC2 [Compound 12, 6-Amino-N-(4-bromophenyl)-7-cyano-2,3-dihydro-1H-pyrrolizine-5-carboxamide]",variable degrees of necrosis with some leukocytes infiltration,21.20,37.40,44.79,1.10,higher anti-inflammatory activity than that of ibuprofen,4.66,66.38,1.03 to 1.27,higher analgesic activity than ibuprofen
1640,3.48,5690,"N#Cc1c(NC(=O)CCl)c(C(=O)Nc2ccc(Br)cc2)n2c1CCC2 [Compound 13, N-(4-Bromophenyl)-6-(2-chloroacetamido)-7-cyano-2,3-dihydro-1H-pyrrolizine-5-carboxamide]",variable degrees of necrosis with some leukocytes infiltration,16.13,35.43,52.31,1.28,the highest anti-inflammatory activity,4.41,68.18,1.03 to 1.27,higher analgesic activity than ibuprofen
1060,,3370,"N#Cc1c2c(n3c1CCC3)C(=O)N(c1ccc(Br)cc1)CC(=O)N2 [Compound 15, 4-(4-Bromophenyl)-2,5-dioxo-1,2,3,4,5,7,8,9-octahydro-[1,4]diazepino[5,6-b]pyrrolizine-10-carbonitrile]",little histopathological effects such as congested blood vessels and variable degrees of leukocytes infiltration,10.60,16.54,24.91,0.61,,,,,lower than that of ibuprofen

# Source: PMC6273963, “Design, Synthesis, and Biological Evaluation of Some Novel Pyrrolizine Derivatives as COX Inhibitors with Anti-Inflammatory/Analgesic Activities and Low Ulcerogenic Liability” (Molecules, 2016)
